Measurements reported in PMC7070953, “Design of Light-Sensitive Triggers for Endothelial NO-Synthase Activation” (Antioxidants, 2020).
Entries after “also recorded” stand apart in the source; their conditions may differ. Where two headings read alike, the source gives them in different places.

Key:
nNOS [1] = target: T1, nNOS (Rattus norvegicus, UniProt P29476); parameters: made in house; conditions: value used in the Cheng-Prusoff equation; no reference given; read-out: Km of NADPH for nNOS; cited from earlier work
nNOS [2] = target: T1, nNOS; test: Flavin reduction of nNOS upon light irradiation at 365 nm (absorption changes); format: biochemical; parameters: made in house; calmodulin purchased from Sigma; conditions: for FAD/flavin reduction upon light excitation (in words): irradiation at 365 nm
Procedure: Light irradiation of the NT -nNOS complexes in the presence of NOHA, H4B, and Ca^2+/calmodulin was performed by a continuous irradiation with a Hg/Xe lamp (Hamamatsu, LC6 Lightningcure, 200 W) equipped with narrow-band interference filter to select 365 nm (Semrock FF01-370/36: center wavelength 370 nm, nominal bandwidth […]) during one minute. The absorption changes before and after irradiation were measured on a Cary5000 spectrophotometer from Agilent Technologies (Les Ulys, France).
100 mM NOHA, 100 mM Ca^2+, 1 µg recombinant calmodulin, 20 mM Tris Buffer at pH = 7.8, 100 mM NaCl; representative data out of 2 experiments.

NOS = tested on: NOS; parameters: method as in PMID 19222033, PMID 17263536; conditions: one and two-photon excitation; cited from earlier work
HUVEC cells [3] = tested on: HUVEC cells; parameters: key to NO Formed upon Laser Excitation: +: NO formed under laser excitation; −: a lack of NO formed under laser excitation; conditions: cited from earlier work; for NO produced in HUVEC cells upon light activation (in words): ref 15 (NT1), ref 19 (NT2_5), 19 (NT2_7)
[4] = parameters: method as in earlier work; conditions: cited from earlier work
HUVEC cells [5] = conditions: cited from earlier work
[6] = Self-association of free NTs in buffer (fluorescence vs concentration, fluorescence anisotropy); format: physicochemical
Procedure: (§1) The apparent binding affinities of the NTs to the neuronal (nNOS) and endothelial (eNOS) isoforms of nitric oxide synthase (NOS) were assessed by changes in NT intrinsic fluorescence using two types of titrations. In the first method, aliquots (1 μL) were added to 100 μL buffer containing NOS protein (5 μM), and fluorescence emission spectra were recorded from 430–700 nm (λexcitation = 420 nm; slit widths = 5 nm) on a Shimadzu RF-5301PC fluorimeter. Spectra of intrinsic protein fluorescence and unbound NT were subtracted from protein/NT spectra and the fluorescence at 460 nm was plotted against NT concentration. In the second method, we measured fluorescence spectra at a fixed concentration of the NT (1–2µM) with a Cary Eclipse spectrophotometer set at T = 20 °C, with excitation wavelength at 390 nm and emission wavelengths in the range 410–610 nm; the PM was usually set at 600 V with slits of 10 nm at both excitation and emission. […] The steady-state fluorescence anisotropy was calculated using: r = (IVV − G × IVH)/(IVV + 2G × IVH) where IVV and IVH correspond to vertical and horizontal components, respectively, when the sample is excited with vertically polarized light, G is the G-factor accounting for the difference in the monochromator transmission between // and ⊥ polarized components (G = IHV/IHH). […]

nNOS [7] = target: T1, nNOS; test: Fluorescence titration of NT binding to recombinant nNOS; parameters: made in house; conditions: [nNOS] = 0–10 µM, 10 mM Tris pH 7.2, 100 mM NaCl, read-out: Apparent Kd nNOS
Procedure: as §1

nNOS [8] = target: T1, nNOS; parameters: made in house; method as in PMID 30986510; conditions: a: protein 5–10 µM, [NTs] = 0–50 µM; read-out: Apparent Kd nNOS; cited from earlier work

## NC(=O)C1=CN([C@@H]2O[C@H](COP(=O)(O)OP(=O)(O)OC[C@H]3O[C@@H](n4cnc5c(N)ncnc54)[C@H](OP(=O)(O)O)[C@@H]3O)[C@@H](O)[C@H]2O)C=CC1 [NADPH]
nNOS [1]
  Km: 5.5 µM

## CCN(CCNC(=O)[C@H]1O[C@@H](n2cnc3c(N)ncnc32)[C@H](OP(=O)(O)O)[C@@H]1O)c1ccc(/C=C/C=C/c2ccc(N)cc2)cc1 [NT1]
nNOS [2]
  FAD/flavin reduction upon light excitation (in words): reduced FAD upon light excitation
NOS
  Time of initiation and synchronization of NOS catalysis after photoexcitation: 15–20 ps
HUVEC cells [3]
  NO Formed upon Laser Excitation: +
  NO produced in HUVEC cells upon light activation (in words): produced NO upon light activation
[4]
  Self-association (in words): did not self-associate
HUVEC cells [5]
  Not toxic to HUVEC up to concentration: up to 20 µM

## CN(Cc1cn(C[C@H]2O[C@@H](n3cnc4c(N)ncnc43)[C@H](OCC(=O)O)[C@@H]2OCC(=O)O)nn1)c1ccc(/C=C/C=C/c2ccc(N)cc2)cc1 [NT2_3]
nNOS [2]
  FAD/flavin reduction upon light excitation (in words): could not reduce FAD
HUVEC cells [3]
  NO Formed upon Laser Excitation: −

## CN(Cc1cn(C[C@H]2O[C@@H](n3cnc4c(N)ncnc43)[C@H](O)[C@@H]2OCC(=O)O)nn1)c1ccc(/C=C/C=C/c2ccc(N)cc2)cc1 [NT2_5]
[6]; free NT in buffer, fluorescence at 460 nm, order NT3_3 > NT3_5 > NT2_5 > NT3_7
  Concentration above which fluorescence of free NT deviates from linearity (self-association): above 5 µM
nNOS [2]
  FAD/flavin reduction upon light excitation (in words): reduced FAD upon light excitation
nNOS [2]; no light
  Ground state (dark) FAD reduction, no light (in words): some ground state reduction; also recorded: can reduce FAD in the ground state
nNOS [7]; b: [NTs] = 1 or 2 µM
  Kd: 1.3 ± 0.2 µM
nNOS [7]; c: [NTs] = 2 µM, 100 mM NOHA
  Kd: 4 ± 0.7 µM
HUVEC cells [3]
  NO Formed upon Laser Excitation: +
  NO produced in HUVEC cells upon light activation (in words): produced NO upon light activation
HUVEC cells [5]; second generation of NT
  Cytotoxicity in HUVEC cells above concentration: above 5 µM

## CN(Cc1cn(C[C@H]2O[C@@H](n3cnc4c(N)ncnc43)[C@H](OCC(=O)O)[C@@H]2O)nn1)c1ccc(/C=C/C=C/c2ccc(N)cc2)cc1 [NT2_7]
nNOS [8]
  Kd: 30 ± 4 µM
HUVEC cells [3]
  NO Formed upon Laser Excitation: −
  NO produced in HUVEC cells upon light activation (in words): unable to generate NO

## O=C1OC2(c3ccc(O)cc3Oc3cc(O)ccc32)c2ccccc21 [fluorescein, reference compound]
[6]; nNOS-free, NT3_3 at 5 µM, fluorescein as freely rotating monomer
  Steady-state fluorescence anisotropy r: 0.005
